Laboratory results from PubChem BioAssay AID1996.
Converted amounts (≈) assume the structure as drawn.

details: buffer; pH 7.4; 200.0 µM

Row | Structure (SMILES) | solubility kinetic
1 | O=C(NCCCn1ccnc1)C1CCN(S(=O)(=O)c2cc([N+](=O)[O-])ccc2Cl)CC1 | > 68.4 µg/mL
2 | O=C1NC(c2ccccc2)Oc2ccccc21 (centres undefined) | 22.9 µg/mL (≈ 102 µM)
3 | COc1ccc(Nc2cc(Sc3ccc(OC)cc3)ncn2)cc1 | 4.6 µg/mL (≈ 13.6 µM)
4 | Cn1cc(/C=N/NC(N)=S)c2ccccc21 | > 34.8 µg/mL
5 | CC1=NC(C)(C)Cc2cc(C)c(C)cc21.Cl | > 35.7 µg/mL
6 | COc1ccc(Cc2c([O-])[nH]c(=O)[nH]c2=O)c(OC)c1.[NH4+] | 43.1 µg/mL
7 | Cl.OC(c1ccccc1)C(CN1CCOCC1)c1ccccc1 (centres undefined) | > 50.1 µg/mL
8 | Cc1ccc(C)c(Nc2nc(-c3cccnc3)cs2)c1 | 0.9 µg/mL (≈ 3.2 µM)
9 | Cc1cc(OC(=O)c2ccc(C)c(C)c2)c([N+](=O)[O-])c(=O)[nH]1 | > 45.3 µg/mL
10 | O=C(NC(=S)N1CCCC1)c1ccc(Cl)cc1 | 35.4 µg/mL (≈ 132 µM)
11 | O=S(=O)(Nc1ccc(Br)cn1)c1cccs1 | 42.4 µg/mL (≈ 133 µM)
12 | Cc1ccc(CNCc2ccco2)cc1.O=C(O)C(=O)O | > 43.7 µg/mL
13 | CCOC(=O)CNc1nc(Cl)nc(NC(C)(C)C)n1 | > 43.2 µg/mL
14 | O=C(N/C=C\n1cnc2cc(C(F)(F)F)ccc21)c1ccc([N+](=O)[O-])cc1 | 2.8 µg/mL (≈ 7.44 µM)
15 | CN1CCc2c(sc(/N=C/c3c[nH]c4ccccc34)c2C(N)=O)C1 | 10.2 µg/mL (≈ 30.1 µM)
16 | CC1=C(C(=O)OCCOC(C)C)C(c2cccc3ccccc23)NC(=O)N1 (centres undefined) | 4.6 µg/mL (≈ 12.5 µM)
17 | COc1ccc(C)cc1NC(=O)COC(=O)C1COc2ccccc2O1 (centres undefined) | > 53.6 µg/mL
18 | O=C(COc1ccc([N+](=O)[O-])cc1)Nc1ccccc1C(=O)NC1CC1 | 1.3 µg/mL (≈ 3.66 µM)
19 | CC(C)(C)c1ccc(C(=O)N2CCC(C(=O)NC3CC3)CC2)cc1 | 48 µg/mL (≈ 146 µM)
20 | CCCCNC(=O)c1ccc(CS(=O)(=O)c2ccc(C)cc2)o1 | > 50.3 µg/mL

Row | Structure (SMILES) | solubility kinetic
21 | Nc1ccc(-c2cnc3ccccc3n2)cc1 | 27.4 µg/mL (≈ 124 µM)
22 | CC(=O)C1C(c2ccc(Cl)cc2)c2c(noc2C)CC1(C)O (centres undefined) | > 48 µg/mL
23 | CCOc1ccccc1NC(=O)c1cccc(N2C(=O)CCC2=O)c1 | > 50.8 µg/mL
24 | COc1c(Cl)ccc(Cl)c1C(=O)NCc1ccco1 | > 45 µg/mL
25 | NC1=NC(=O)/C(=C/c2ccccc2OCC(=O)Nc2ccc(F)cc2)S1 | 3.8 µg/mL (≈ 10.2 µM)
26 | Cn1c(SCC(=O)NC2CCCC2)nnc1-c1ccncc1 | > 47.6 µg/mL
27 | Cc1ccc(OCCn2cc(C=O)c3ccccc32)cc1 | 5.3 µg/mL (≈ 19 µM)
28 | O=C(COC(=O)C1CCCC1)Nc1ncc(Cl)cc1Cl | > 47.6 µg/mL
29 | COc1ccccc1Nc1nc(N)nc(CCl)n1 | 35.4 µg/mL (≈ 133 µM)
30 | Cc1cc(NC(=O)c2ccno2)no1 | > 29 µg/mL
31 | Cc1cccc(CC2CC(=O)N(CCc3ccc4c(c3)OCO4)C2=O)c1 (centres undefined) | 11.5 µg/mL (≈ 32.7 µM)
32 | CC(NC(=O)COc1cccnc1[N+](=O)[O-])c1ccc(Cl)cc1Cl (centres undefined) | 44.1 µg/mL (≈ 119 µM)
33 | Cc1ccc(C)c(NC(=O)CCN2CC(C)CC(C)C2)c1 (centres undefined) | 32.7 µg/mL (≈ 113 µM)
34 | CN(CCc1ccccn1)Cc1ccc(Cl)c(Cl)c1 | 29.2 µg/mL (≈ 98.9 µM)
35 | O=C(COc1ccc2ccccc2c1)Nc1cccnc1Cl | < 0.3 µg/mL
36 | CCC(=O)Nc1ccc(-c2ccc(NC(=O)CC)c(OC)c2)cc1OC | 7.1 µg/mL (≈ 19.9 µM)
37 | COc1ccc(C(=O)N(C)Cc2ccccc2F)cc1S(=O)(=O)N1CCCC1 | > 61 µg/mL
38 | CCCOc1ccc(C2Nc3cccc4cccc(c34)N2)cc1 | 3.8 µg/mL (≈ 12.5 µM)
39 | Cc1ccccc1Sc1ccc(N)cn1 | 31.4 µg/mL (≈ 145 µM)
40 | Cc1cccc(NC(=O)COC(=O)CC2CCCC2)c1C | > 43.4 µg/mL

Row | Structure (SMILES) | solubility kinetic
41 | Cc1ccc(C(=O)NCCn2ccc3ccccc32)cc1[N+](=O)[O-] | 3.9 µg/mL (≈ 12.1 µM)
42 | O=C(c1cc2cc(Br)ccc2s1)N1CCOCC1 | 45.8 µg/mL (≈ 140 µM)
43 | CCC(C)c1ccc(NC(=S)NC(C)C2CCCO2)cc1 (centres undefined) | 31.2 µg/mL (≈ 102 µM)
44 | CCC12CN3CCN(CC(C3)/C1=N\NC(=O)c1ccc(F)cc1)C2 | > 49.6 µg/mL
45 | COC(=O)/C=C1\NCCNC1=O | > 25.5 µg/mL
46 | Cn1ncc([N+](=O)[O-])c1C(=O)Nc1ccccc1 | > 36.9 µg/mL
47 | CC1CCCCN1C(=O)C1COc2ccccc2O1 (centres undefined) | 35.5 µg/mL (≈ 136 µM)
48 | O=C(O)CCc1ccc(-c2ccccc2)n1-c1cccc(C(=O)O)c1 | > 50.3 µg/mL
49 | COC(=O)C1=C(Nc2ccccc2NC(=O)c2ccccc2C(=O)O)CSC1 | > 59.8 µg/mL
50 | Cc1nn2c(nc1=O)NNC2(C)C(C)(C)C (centres undefined) | > 33.5 µg/mL
51 | COC(=O)c1c(C)[nH]c(C)c1-c1ccc([N+](=O)[O-])cc1 | 36.3 µg/mL (≈ 132 µM)
52 | O=C(CNC(=O)c1ccc(F)cc1)c1ccccc1 | > 38.6 µg/mL
53 | COc1ccc(CNC(=O)COC(=O)c2cc3ccccc3o2)cc1 | 5.4 µg/mL (≈ 15.9 µM)
54 | CC1c2cccn2CCN1S(=O)(=O)c1ccc(F)cc1 (centres undefined) | > 44.2 µg/mL
55 | CC(=O)n1cc(Nc2ccc([N+](=O)[O-])cc2)c2ccccc21 | 4.6 µg/mL (≈ 15.6 µM)
56 | S=C1NCN(Cc2ccco2)CN1c1cccc2ccccc12 | > 48.5 µg/mL
57 | Cc1ccc(OCCCC(=O)ON=C(N)c2ccccc2C)cc1 | 19.9 µg/mL (≈ 61 µM)
58 | O=C(Nc1ccc(Cl)cc1N1CCOCC1)C1CCCO1 (centres undefined) | 44.7 µg/mL (≈ 144 µM)
59 | CCC1C(=O)N=C(SCC(=O)Nc2nc3ccccc3s2)NC1=O (centres undefined) | > 54.4 µg/mL
